Laboratory results as given in patent publication US6528494B2 (priority 1996, dated 2003).
Where a name gives a salt, the structure may show the parent alone.

Key:
Format in all cases: cell-based
[1] = target: adenosine 2a receptor (Homo sapiens, UniProt P29274); assay: Agonist activity against adenosine 2a receptor (CHO cells, cAMP/SPAP reporter); settings: CHO cells transfected with human receptor; basal cAMP via SPAP; mean of all the versions tested
Method: (§1) (1) Agonist activity against adenosine 2a, adenosine 1 and adenosine 3 receptor subtypes.
(§2) The effect of test compounds was determined by their effects on basal levels of cAMP (A2a) or on forskolin-enhanced cAMP (A1 and A3) as reflected by changes in levels of SPAP.

[2] = target: T1, adenosine 1 receptor (Homo sapiens, UniProt P30542); assay: Agonist activity against adenosine 1 receptor (CHO cells, forskolin-enhanced cAMP/SPAP reporter); settings: CHO cells transfected with human receptor; forskolin-enhanced cAMP via SPAP; mean of all the versions tested
T1 sequence (P30542 1-326): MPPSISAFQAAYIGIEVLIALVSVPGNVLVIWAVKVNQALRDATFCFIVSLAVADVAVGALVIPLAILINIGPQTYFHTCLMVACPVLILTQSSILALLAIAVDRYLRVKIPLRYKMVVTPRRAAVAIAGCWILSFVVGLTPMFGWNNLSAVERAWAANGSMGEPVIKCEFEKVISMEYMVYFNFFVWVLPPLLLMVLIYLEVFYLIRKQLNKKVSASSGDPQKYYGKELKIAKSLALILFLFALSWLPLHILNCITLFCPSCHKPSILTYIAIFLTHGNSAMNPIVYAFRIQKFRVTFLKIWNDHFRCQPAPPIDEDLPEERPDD
Method: as §1, §2

[3] = target: T2, adenosine 3 receptor (Homo sapiens, UniProt P0DMS8); assay: Agonist activity against adenosine 3 receptor (CHO cells, forskolin-enhanced cAMP/SPAP reporter); settings: CHO cells transfected with human receptor; forskolin-enhanced cAMP via SPAP; mean of all the versions tested
T2 sequence (P0DMS8 1-318): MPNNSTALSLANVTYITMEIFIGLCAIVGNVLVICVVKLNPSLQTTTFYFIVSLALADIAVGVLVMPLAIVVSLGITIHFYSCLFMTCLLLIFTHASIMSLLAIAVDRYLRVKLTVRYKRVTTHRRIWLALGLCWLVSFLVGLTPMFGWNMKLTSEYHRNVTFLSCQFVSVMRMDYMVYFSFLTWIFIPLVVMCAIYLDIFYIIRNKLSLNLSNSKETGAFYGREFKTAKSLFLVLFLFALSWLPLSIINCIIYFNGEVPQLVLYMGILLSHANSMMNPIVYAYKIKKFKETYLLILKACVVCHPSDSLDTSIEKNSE
Method: as §1, §2

adenosine 2a receptor, sequence (P29274 whole entry): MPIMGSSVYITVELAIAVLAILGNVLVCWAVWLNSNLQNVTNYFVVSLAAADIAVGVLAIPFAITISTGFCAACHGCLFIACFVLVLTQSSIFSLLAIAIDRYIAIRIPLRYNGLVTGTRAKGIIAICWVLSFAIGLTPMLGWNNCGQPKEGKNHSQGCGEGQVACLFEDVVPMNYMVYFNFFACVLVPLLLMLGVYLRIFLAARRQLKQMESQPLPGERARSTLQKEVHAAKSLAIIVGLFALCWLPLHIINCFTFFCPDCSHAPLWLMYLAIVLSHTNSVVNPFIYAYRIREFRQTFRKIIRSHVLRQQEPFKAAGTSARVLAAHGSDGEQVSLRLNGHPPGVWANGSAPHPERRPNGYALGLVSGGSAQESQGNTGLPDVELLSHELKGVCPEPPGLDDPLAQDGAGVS

| A2a EC50 as a ratio of that of NECA [1] | A1 EC50 as a ratio of that of NECA [2] | A3 EC50 as a ratio of that of NECA [3] | SMILES |
| --- | --- | --- | --- |
| 1.40 | 121.50 | >174 | CCn1nnc(C2OC(n3cnc4c(NCCc5ccccc5)nc(NC5CCN(Cc6ccccc6)C5)nc43)C(O)C2O)n1.O=CO.O=CO [Example 75, (2R,3R,4S,5R)-2-[2-(1-Benzyl-pyrrolidin-3-ylamino)-6-phenethylamino-purin-9-yl]-5-(2-ethyl-2H-tetrazol-5-yl)-tetrahydro-furan-3,4-diol bis(Formate)] |
| 2.93 | 215.30 | >155 | CCn1nnc(C2OC(n3cnc4c(NCc5cccc(I)c5)nc(NC5CCNC5)nc43)C(O)C2O)n1 [Example 76, (2R,3S,4R,5R)-2-(2-Ethyl-2H-tetrazol-5-yl)-5-[6-(3-iodo-benzylamino)-2-(pyrrolidin-3S-ylamino)-purin-9-yl]-tetrahydro-furan-3,4-diol bis(Formate)] |
| 3.30 | 101.30 | >200 | CCn1nnc(C2OC(n3cnc4c(NCc5cccc(I)c5)nc(NC5CCN(Cc6ccccc6)C5)nc43)C(O)C2O)n1.O=CO.O=CO [Example 77, (2R,3R,4S,5R)-2-[2-(1-Benzyl-pyrrolidin-3-ylamino)-6-(3-iodo-benzylamino)-purin-9-yl]-5-(2-ethyl-2H-tetrazol-5-yl)-tetrahydro-furan-3,4-diol bis(Formate)] |
| 2.40 | 165.30 | >155 | CCn1nnc(C2OC(n3cnc4c(NCCc5ccccc5)nc(NC(CO)Cc5ccccc5)nc43)C(O)C2O)n1 [Example 79, (2R,3S,4R,5R)-2-(2-Ethyl-2H-tetrazol-5-yl)-5-[2-(1S-hydroxymethyl-2-phenyl-ethylamino)-6-phenethylamino-purin-9-yl]-tetrahydro-furan-3,4-diol Formate] |
| 2.37 | 77.10 | >164 | CC(C)n1nnc(C2OC(n3cnc4c(NC5CCCC5)nc(NCCN5CCCCC5)nc43)C(O)C2O)n1 [Example 80, (2R,3R,4S,5R)-2-[6-Cyclopentylamino-2-(2-piperidin-1-yl-ethylamino)-purin-9-yl]-yl)-5-(2-isopropyl-2H-tetrazol-5-yl)-tetrahydro-furan-3,4-diol bis(Formate)] |
| 4.77 | 89.11 | >156 | CC(C)n1nnc(C2OC(n3cnc4c(NC5CCCC5)nc(NCCN5CCCC5)nc43)C(O)C2O)n1.O=CO.O=CO [Example 81, (2R,3R,4S,5R)-2-[6-Cyclopentylamino-2-(2-pyrrolidin-1-yl-ethylamino)-purin-9-yl]-5-(2-isopropyl-2H-tetrazol-5-yl)-tetrahydro-furan-3,4-diol Diformate] |
| 5.56 | 520.50 | >189 | CCn1nnc(C2OC(n3cnc4c(NCC(c5ccccc5)c5ccccc5)nc(NCCNC(=N)N)nc43)C(O)C2O)n1 (stereo not drawn) [Example 82, N-(2-{6-(2,2-Diphenyl-ethylamino)-9-[5R-(2-ethyl-2H-tetrazol-5-yl)-3R,4S-Dihydroxy-tetrahydro-furan-2R-yl]-9H-purin-2-ylamino}-ethyl)-guanidine bis(Trifluoroacetate)] |
| 4.82 | 130.10 | >362 | CCn1nnc([C@H]2O[C@@H](n3cnc4c(NCC(c5ccccc5)c5ccccc5)nc(NCCN)nc43)[C@H](O)[C@@H]2O)n1 [Example 83, (2R,3R,4S,5R)-2-[2-(2-Amino-ethylamino)-6-(2,2-diphenyl-ethylamino)-purin-9-yl]-5-(2-ethyl-2H-tetrazol-5-yl)-tetrahydro-furan-3,4-diol] |
| 2.50 | 490.80 | >103 | CCn1nnc(C2OC(n3cnc4c(NCC(c5ccccc5)c5ccccc5)nc(NC5CCNC5)nc43)C(O)C2O)n1 [Example 84, (2R,3R,4S,5R)-2-[6-(2,2-Diphenyl-ethylamino)-2-(pyrrolidin-3S-ylamino)-purin-9-yl]-5-(2-ethyl-2H-tetrazol-5-yl)-tetrahydro-furan-3,4-diol bis(Trifluoroacetate)] |
| 6.11 | 192.90 | >179 | CCn1nnc(C2OC(n3cnc4c(NCCN5CCOCC5)nc(NC(CO)Cc5ccccc5)nc43)C(O)C2O)n1 [Example 85, (2R,3S,4R,5R)-2-(2-Ethyl-2H-tetrazol-5-yl)-5-[2-(1S-hydroxymethyl-2-phenyl-ethylamino)-6-(2-morpholin-4-yl-ethylamino)-purin-9-yl]-tetrahydro-furan-3,4-diol Formate] |
| 1.61 | 348.11 | >320 | CCC(CC)Nc1nc(NC2CCC(N)CC2)nc2c1ncn2C1OC(c2nnn(C)n2)C(O)C1O.O=CO.O=CO [Example 87, (2R,3R,4S,5R)-2-[2-(trans-4-Amino-cyclohexylamino)-6-(1-ethyl-propylamino)-purin-9-yl]-5-(2-methyl-2H-tetrazol-5-yl)-tetrahydro-furan-3,4-diol Diformate] |
| 4.53 | >11750.00 | >89 | CCC(CC)Nc1nc(NC2CCCC2O)nc2c1ncn2C1OC(c2nnn(C)n2)C(O)C1O.O=CO.O=CO [Example 88, (2R,3R,4S,5R)-2-[6-(1-Ethyl-propylamino)-2-(2R-hydroxy-(R)-cyclopentylamino)-purin-9-yl]-5-(2-methyl-2H-tetrazol-5-yl)-tetrahydro-furan-3,4-diol Diformate] |
| 2.22 | >9363.00 | >243 | CCC(CC)Nc1nc(NCCc2ccccn2)nc2c1ncn2C1OC(c2nnn(C)n2)C(O)C1O.O=CO.O=CO [Example 89, (2R,3R,4S,5R)-2-[6-(1-Ethyl-propylamino)-2-(2-pyridin-2-yl-ethylamino)-purin-9-yl]-5-(2-methyl-2H-tetrazol-5-yl)-tetrahydro-furan-3,4-diol Diformate] |
| 2.41 | 245.90 | >267 | CCC(CC)Nc1nc(NCCN2CCCC2)nc2c1ncn2C1OC(c2nnn(C)n2)C(O)C1O.O=CO.O=CO [Example 90, (2R,3R,4S,5R)-2-[6-(1-Ethyl-propylamino)-2-(2-pyrrolidin-1-yl-ethylamino)-purin-9-yl]-5-(2-methyl-2H-tetrazol-5-yl)-tetrahydro-furan-3,4-diol Diformate] |
| 1.75 | >7461.00 | >270 | CCC(CC)Nc1nc(NCCN2CCOCC2)nc2c1ncn2C1OC(c2nnn(C)n2)C(O)C1O.O=CO.O=CO [Example 91, (2R,3R,4S,5R)-2-[6-(1-Ethyl-propylamino)-2-(2-morpholin-4-yl-ethylamino)-purin-9-yl]-5-(2-methyl-2H-tetrazol-5-yl)-tetrahydro-furan-3,4-diol Diformate] |
| 5.07 | 922.00 | >153 | Cn1nnc(C2OC(n3cnc4c(NCC(c5ccccc5)c5ccccc5)nc(NC5CCC(N)CC5)nc43)C(O)C2O)n1.O=CO.O=CO [Example 93, (2R,3R,4S,5R)-2-[2-(trans-4-Amino-cyclohexylamino)-6-(2,2-diphenyl-ethylamino)-purin-9-yl]-5-(2-methyl-2H-tetrazol-5-yl)-tetrahydro-furan-3,4-diol Diformate] |
| 2.39 | 385.90 | >411 | Cn1nnc(C2OC(n3cnc4c(NCC(c5ccccc5)c5ccccc5)nc(NC5CCNC5)nc43)C(O)C2O)n1 [Example 94, (2R,3R,4S,5R)-2-[6-(2,2-Diphenyl-ethylamino)-2-(pyrrolidin-3R-ylamino)-purin-9-yl]-5-(2-methyl-2H-tetrazol-5-yl)-tetrahydro-furan-3,4-diol Diformate] |

| SMILES | A2a EC50 as a ratio of that of NECA [1] | A1 EC50 as a ratio of that of NECA [2] | A3 EC50 as a ratio of that of NECA [3] |
| --- | --- | --- | --- |
| CCn1nnc([C@H]2O[C@@H](n3cnc4c(N)nc(NCc5ccccc5CO)nc43)[C@H](O)[C@@H]2O)n1.O=C(O)C(F)(F)F [Example 86, (2R,3R,4S,5R)-2-[6-Amino-2-(2-hydroxymethyl-benzylamino)-purin-9-yl]-5-(2-ethyl-2H-tetrazol-5-yl)-tetrahydro-furan-3,4-diol Trifluoroacetate] | 2.16 | 16.90 | >179 |
